Data as given in PubChem BioAssay AID588644 (The Scripps Research Institute Molecular Screening Center, 2011).
Active and inactive are the calls of the source.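 How the source made its calls: active means rise or fall in EGR1 growth-response protein of at least 30% versus solvent-only treated cells; inactive means EGR1 protein change under 30% either way.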

Biological target: Early growth response protein 1 (Homo sapiens) (UniProt P18146)
Experiment: lowering of EGR1 protein in HCT116 – cell-based, HCT116 colorectal carcinoma, chemiluminescent western blot, counter-screen for KLF5 inhibitor project, late-stage follow-up (AID 588644)
Details: HCT116 EGR1 protein level, 24 h, at 10 µM, hits give high values

CN(C(=O)CNC(=O)/C=C/c1cccc(Cl)c1)C1CCS(=O)(=O)CC1
inhibition: -3.53% (inactive)

CN(C(=O)COC(=O)/C=C/c1cccc([N+](=O)[O-])c1)C1CCS(=O)(=O)C1 (stereo not drawn)
inhibition: 28.4% (inactive)

CN(C(=O)CNC(=O)/C=C/c1cccc(Cl)c1)C1CCS(=O)(=O)C1 (stereo not drawn)
inhibition: 18.6% (inactive)
